Assay results as given in US12624368B2 (priority 2018, dated 2026).
In brackets after ≈: the same amount, converted by molar mass. Entries after “also recorded” stand apart in the source; their conditions may differ. Where two headings read alike, the source gives them in different places. Where a SMILES comes first, the peptide text is derived from it.

How the values were obtained:
A(H1N1)pdm09 virus [1] = type: cell-based, influenza A virus A(H1N1)pdm09
[2] = tested on: endosomal acidification in MDCK cells; type: cell-based, canine
in vitro [3] = settings: human
in vitro [4] = settings: dog
[5] = tested on: HA mediated membrane fusion; settings: pH 5
A(H7N7) virus [6] = settings: 1 h
A(H1N1)pdm09 virus [7] = settings: 1 h
A(H7N7) virus [8] = tested on: A(H7N7) virus; parameters: species or system BALB/c mice; settings: mouse, in vivo
endosomal acidification = settings: cited from earlier work
A(H1N1)pdm09 virus [9] = tested on: A(H1N1)pdm09 virus; parameters: species or system BALB/c mice; settings: in vivo
[10] = tested on: A(H7N7) and A(H1N1)pdm09 virus; type: cell-based, influenza A virus; settings: 0-8,000 nM
293T cells = type: cell-based, human
mouse lungs = settings: in vivo
[11] = MDCK cells, P1 25.0 μg ml^−1, TAT-P1 3.1 μg ml^−1, bafilomycin A1 100.0 nM, PA1 25.0 μg ml^−1

Compound: CC[C@H](C)[C@H](NC(=O)[C@H](CCC(N)=O)NC(=O)[C@H](CCCNC(=N)N)NC(=O)[C@H](Cc1ccccc1)NC(=O)[C@H](C)NC(=O)[C@@H](NC(=O)[C@@H]1CCCN1C(=O)[C@H](CS)NC(=O)[C@@H]1CCCN1C(=O)CNC(=O)[C@H](Cc1c[nH]c2ccccc12)NC(=O)[C@@H](N)CS)[C@@H](C)O)C(=O)NCC(=O)N[C@@H](CC(N)=O)C(=O)N[C@@H](CS)C(=O)NCC(=O)N[C@@H](CCCNC(=N)N)C(=O)N[C@@H](Cc1ccccc1)C(=O)N[C@@H](CCCNC(=N)N)C(=O)N[C@H](C(=O)N[C@@H](CCCNC(=N)N)C(=O)N[C@@H](CS)C(=O)N[C@@H](CS)C(=O)N[C@@H](CCCNC(=N)N)C(=O)N[C@H](C(=O)N[C@@H](CCCNC(=N)N)C(=O)O)[C@@H](C)CC)C(C)C [P1] (H-CWGPCPTAFRQIGNCGRFRVRCCRIR-OH)
- viral RNP release into the nuclei (A(H1N1)pdm09 virus [1]): blocked viral RNP release into the nuclei
- endosomal acidification [2]: prevented endosomal acidification
- CC50 (in vitro [3]): > 400 µg/mL
- CC50 (in vitro [4]): > 400 µg/mL
- HA-mediated membrane fusion [5]: did not inhibit HA-mediated membrane fusion
- viral replication in 293T cells (viral titers by plaque assay) (H7N7 virus): could significantly inhibit viral replication
- IC50 (H7N7) (A(H7N7) virus [6]): 1.56 µg/mL (≈ 0.51 µM)

Compound: N=C(N)NCCC[C@H](NC(=O)[C@H](CCCNC(=N)N)NC(=O)[C@H](CCCNC(=N)N)NC(=O)[C@H](CCC(N)=O)NC(=O)[C@H](CCCNC(=N)N)NC(=O)[C@H](CCCNC(=N)N)NC(=O)[C@H](CCCCN)NC(=O)[C@H](CCCCN)NC(=O)[C@H](CCCNC(=N)N)NC(=O)CNC(=O)[C@@H](N)Cc1ccc(O)cc1)C(=O)O [TAT, YGRKKRRQRRR (SEQ ID NO: 7), reference compound]
- CC50 (in vitro [3]): > 400 µg/mL
- CC50 (in vitro [4]): > 400 µg/mL
- IC50 (H1N1) (A(H1N1)pdm09 virus [7]): >50.0 µg/mL
- IC50 (H7N7) (A(H7N7) virus [6]): >50.0 µg/mL

Compound: CC[C@H](C)[C@H](NC(=O)[C@H](CCC(N)=O)NC(=O)[C@H](CCCNC(=N)N)NC(=O)[C@H](Cc1ccccc1)NC(=O)[C@H](C)NC(=O)[C@@H](NC(=O)[C@@H]1CCCN1C(=O)[C@H](CS)NC(=O)[C@@H]1CCCN1C(=O)CNC(=O)[C@H](Cc1c[nH]c2ccccc12)NC(=O)[C@H](CS)NC(=O)[C@H](CCCNC(=N)N)NC(=O)[C@H](CCCNC(=N)N)NC(=O)[C@H](CCCNC(=N)N)NC(=O)[C@H](CCC(N)=O)NC(=O)[C@H](CCCNC(=N)N)NC(=O)[C@H](CCCNC(=N)N)NC(=O)[C@H](CCCCN)NC(=O)[C@H](CCCCN)NC(=O)[C@H](CCCNC(=N)N)NC(=O)CNC(=O)[C@@H](N)Cc1ccc(O)cc1)[C@@H](C)O)C(=O)NCC(=O)N[C@@H](CC(N)=O)C(=O)N[C@@H](CS)C(=O)NCC(=O)N[C@@H](CCCNC(=N)N)C(=O)N[C@@H](Cc1ccccc1)C(=O)N[C@@H](CCCNC(=N)N)C(=O)N[C@H](C(=O)N[C@@H](CCCNC(=N)N)C(=O)N[C@@H](CS)C(=O)N[C@@H](CS)C(=O)N[C@@H](CCCNC(=N)N)C(=O)N[C@H](C(=O)N[C@@H](CCCNC(=N)N)C(=O)O)[C@@H](C)CC)C(C)C [TAT-P1] (H-YGRKKRRQRRRCWGPCPTAFRQIGNCGRFRVRCCRIR-OH)
- viral RNP release into the nuclei (A(H1N1)pdm09 virus [1]): blocked viral RNP release into the nuclei
- endosomal acidification [2, 11]: prevented endosomal acidification
- CC50 (in vitro [3]): 226 µg/mL (≈ 49.1 µM)
- survival (A(H7N7) virus [8]): 30%
- CC50 (in vitro [4]): 300 µg/mL (≈ 65.2 µM)
- HA-mediated membrane fusion [5]: did not inhibit HA-mediated membrane fusion
- viral replication in 293T cells (viral titers by plaque assay) (H7N7 virus): could significantly inhibit viral replication

Compound: CC[C@H](C)[C@H](NC(=O)[C@H](CCCNC(=N)N)NC(=O)[C@H](CS)NC(=O)[C@H](CS)NC(=O)[C@H](CCCNC(=N)N)NC(=O)[C@@H](NC(=O)[C@H](CCCNC(=N)N)NC(=O)[C@H](Cc1ccccc1)NC(=O)[C@H](CCCNC(=N)N)NC(=O)CNC(=O)[C@H](CS)NC(=O)[C@H](CC(N)=O)NC(=O)[C@H](CCCNC(=N)N)NC(=O)[C@H](CCCCN)NC(=O)[C@H](CCCNC(=N)N)NC(=O)[C@H](Cc1ccccc1)NC(=O)[C@H](C)NC(=O)[C@H](CCCNC(=N)N)NC(=O)[C@@H]1CCCN1C(=O)[C@H](CS)NC(=O)[C@@H]1CCCN1C(=O)[C@H](CCCNC(=N)N)NC(=O)[C@H](Cc1c[nH]c2ccccc12)NC(=O)[C@H](CS)NC(=O)[C@H](CCCNC(=N)N)NC(=O)[C@H](CCCNC(=N)N)NC(=O)[C@H](CCCNC(=N)N)NC(=O)[C@H](CCC(N)=O)NC(=O)[C@H](CCCNC(=N)N)NC(=O)[C@H](CCCNC(=N)N)NC(=O)[C@H](CCCCN)NC(=O)[C@H](CCCCN)NC(=O)[C@H](CCCNC(=N)N)NC(=O)CNC(=O)[C@@H](N)Cc1ccc(O)cc1)[C@@H](C)CC)C(=O)N[C@@H](CCCNC(=N)N)C(=O)O [TAT-P2] (H-YGRKKRRQRRRCWRPCPRAFRKRNCGRFRIRCCRIR-OH; N-terminus and C-terminus assumed)
- CC50 (in vitro [3]): 154 µg/mL (≈ 32.4 µM)
- CC50 (in vitro [4]): 160 µg/mL (≈ 33.7 µM)

Compound: CC[C@H](C)[C@H](NC(=O)[C@H](CCCNC(=N)N)NC(=O)[C@H](CS)NC(=O)[C@H](CCCNC(=N)N)NC(=O)[C@@H](NC(=O)[C@H](CCCNC(=N)N)NC(=O)[C@H](Cc1ccccc1)NC(=O)[C@H](CCCNC(=N)N)NC(=O)CNC(=O)[C@H](CS)NC(=O)[C@H](CC(C)C)NC(=O)[C@H](CCC(N)=O)NC(=O)[C@H](CCCNC(=N)N)NC(=O)[C@H](Cc1ccccc1)NC(=O)[C@H](CO)NC(=O)[C@@H]1CCCN1C(=O)[C@H](CS)NC(=O)[C@@H]1CCCN1C(=O)[C@H](CCCNC(=N)N)NC(=O)[C@H](Cc1c[nH]c2ccccc12)NC(=O)[C@H](CS)NC(=O)[C@H](CCCNC(=N)N)NC(=O)[C@H](CCCNC(=N)N)NC(=O)[C@H](CCCNC(=N)N)NC(=O)[C@H](CCC(N)=O)NC(=O)[C@H](CCCNC(=N)N)NC(=O)[C@H](CCCNC(=N)N)NC(=O)[C@H](CCCCN)NC(=O)[C@H](CCCCN)NC(=O)[C@H](CCCNC(=N)N)NC(=O)CNC(=O)[C@@H](N)Cc1ccc(O)cc1)[C@@H](C)CC)C(=O)N[C@@H](CCCNC(=N)N)C(=O)O [TAT-P3] (H-YGRKKRRQRRRCWRPCPSFRQLCGRFRIRCRIR-OH; N-terminus and C-terminus assumed)
- CC50 (in vitro [3]): 205 µg/mL (≈ 47.1 µM)
- CC50 (in vitro [4]): 207 µg/mL (≈ 47.6 µM)

Compound: CCN(CC)CCCC(C)Nc1ccnc2cc(Cl)ccc12 (stereo not drawn) [chloroquine]
- effective concentrations for inhibiting endosomal acidification (endosomal acidification): ~100 µM

Compound: CC(=O)N[C@H]1[C@H]([C@H](O)[C@H](O)CO)OC(C(=O)O)=C[C@@H]1N=C(N)N [zanamivir]
- viral titers in mouse lungs (A(H1N1)pdm09 virus [9]): significantly reduced
- IL-6 expression in mice (A(H1N1)pdm09 virus [9]; mouse): significantly reduced
- body weight loss (A(H1N1)pdm09 virus [9]; mouse): significantly reduced
- survival (A(H1N1)pdm09 virus [9]; mouse): 90%
- susceptibility of A(H7N7) virus to zanamivir compared with A(H1N1)pdm09 virus [10]: reduced susceptibility; also recorded: reduced sensitivity of A(H7N7) virus to zanamivir
- body weight loss (A(H7N7) virus [8]): significantly less body weight loss
- survival (A(H7N7) virus [8]): 40%

Compound: Bafilomycin A1 [reference compound]
- viral RNP release into the nuclei (A(H1N1)pdm09 virus [1]): blocked viral RNP release into the nuclei
- effect of added agent on transfection efficiency of TAT-P1/pLuc (293T cells): increased
- endosomal acidification [2, 11]: prevented endosomal acidification

Compound: NGAICWGPCPTAFRQIG NCGHFKVRCCKIRDED (SEQ ID NO: 9) [PA1, reference compound]
- effect of added agent on transfection efficiency of TAT-P1/pLuc (293T cells): did not improve the transfection efficiency
- endosomal acidification [2]: did not prevent endosomal acidification
- effect of added peptide on transfection efficiency of TAT-P1/pLuc in mouse lungs (mouse lungs): did not improve the transfection efficiency
